The target of one test is T1, TBP1 (Homo sapiens, UniProt P19438).
T1 construct: soluble extracellular domain of TNF receptor type 1, p55; host or cells: CHO
T1 sequence (P19438 41-201 limits assumed): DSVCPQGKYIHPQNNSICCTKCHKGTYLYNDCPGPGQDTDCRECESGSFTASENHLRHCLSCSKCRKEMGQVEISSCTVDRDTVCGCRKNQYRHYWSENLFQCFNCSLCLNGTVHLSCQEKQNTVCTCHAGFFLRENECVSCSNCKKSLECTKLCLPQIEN
Description: Binding of TBP1 to peptides on beads, ELISA with soluble substrate (pNPP, O.D. at 405 nm). (In general: ELISA stands for enzyme-linked immunosorbent assay.)

Another test concerns rabbit immunoglobulins. The experiment in a line: Immunostaining of library beads containing N-DSer-DLys-LVal to verify specificity. It counts as binding. Here is the method:
7. First screening of the polystyrene peptide library with TBP1. One quarter (400 µl packed) of the total number of beads were blocked with 5% FBS in PBS (1 ml for 45 minutes), to avoid nonspecific binding, and incubated with TBP1 (1 ml at a concentration of 10µg/ml in FBS/PBS for 45 minutes) followed by polyclonal rabbit anti-TBP1 (1:500 in FBS/PBS, 1 ml for 1 hour) and alkaline phosphatase conjugated goat anti-rabbit Ig antibodies (1:2000 in FBS/PBS, 1 ml for 40 minutes). The signal was generated by BCIP/NBT substrate (12 ml in 9 cm petri dish; further details as in 5 above). More than 50 stained beads were selected and three of them were subjected to sequencing. […] The BCIP/NBT substrate that we used in order to stain the beads could not be destained by any treatment that we tried (organic solvents, urea, SDS, NaOH, boiling, sonication and combinations of all of the above), and we therefore decided to use another alkaline phosphatase substrate which could be readily destained. […]

Test [1] relates to Immunoglobulins from other animal species and from humans. The experiment in a line: Immunostaining of library beads containing N-DSer-DLys-LVal to verify specificity, other immunoglobulins. It counts as binding.
Test [2] concerns Monoclonal antibody to human β-endorphin. The experiment in a line: Staining of beads with anti-endorphin McAb clone 3-E7 (alkaline phosphatase/BCIP). Format: binding, mouse. The settings on record: antibody 200 ng/ml, BCIP 2 hours. As for the experimental part: Staining of the beads was performed using the following steps (all incubation steps were performed with continuous mixing of the beads): • a. Washes of the beads with wash buffer. • b. Incubation of the beads with blocking buffer for 45 minutes to block non-specific interactions. • c. Incubation of the beads with the monoclonal antibody to human β-endorphin diluted to 200 ng/ml in blocking buffer for 40 minutes. • d. Six washes with wash buffer. • e. Incubation of the beads with the polyclonal rabbit antibodies against mouse IgG conjugated with alkaline phosphatase, diluted 1:1000 in blocking buffer for 40 minutes. • f. Six washes with wash buffer and one wash with Tris (25mM), NaC1 (125 mM), Tween (0.1%). • g. Incubation of the beads with BCIP diluted to 500 ug/ml in 0.1M Tris pH 9.0, for 2 hours. • h. Two washes with H2O, transfer of the beads to petri dishes and observation for blue stained beads (using a stereomicroscope).

Here are results for four substances from patent EP0639584B1, “Preparation and screening of highly diverse peptide libraries for binding activity” (INTERPHARM LABORATORIES LTD., priority 1993, dated 1995).

N-DAla-DGlu-LMet: the OD entry on TBP1 (relative to background, peptide on around 100,000 beads, soluble substrate) is on record as “ten times higher than background”. The “OD in presence of the TBP1” value at TBP1 (relative to the antibodies only) was “four times higher”. In addition, the “response with antibodies alone” value at TBP1 (without TBP1) is given as “lack of response”.
Turning to N-DSer-DLys-LVal, the “recognition of rabbit immunoglobulins” value in the test with rabbit immunoglobulins (from both rabbit anti-TBP1 antiserum and normal rabbit serum) is reported as “specifically recognized”. Also, the “Immunostaining performed with and without TBP1” value in the test on rabbit immunoglobulins (surface staining) is reported as “specificity to the antibodies”. Besides, in test [1], the “recognition of immunoglobulins from other animal species and from humans” value was “not recognized”.
Take “n-His-Pro-Tyr-Pro-Pro (HPYPP; on TentaGel beads; printed: His-Pro-Tyr-Pro-Pro) [Model HPYPP]”: in test [2], the “Number of Blue-stained Beads” value is listed as “none of the beads”.
On the same count and under the same terms, next, n-Tyr-Gly-Gly-Phe-Leu [Model YGGFL]: “most of the beads”.
